In US20140294956A1, “GASTRIC RETENTIVE EXTENDED RELEASE PHARMACEUTICAL COMPOSITIONS” (MALLINCKRODT LLC, priority 2011, published 2014):

Test: Ethanol release testing at 100 rpm paddle speed (Example 32)
Type: physicochemical

Compound: CC(=O)Nc1ccc(O)cc1 [APAP]
- Percent Release, Mean (0% Ethanol, 15 min): 52.2%
- Percent Release, Mean (0% Ethanol, 30 min): 54.6%
- Percent Release, Mean (0% Ethanol, 45 min): 56.8%
- Percent Release, Mean (0% Ethanol, 60 min): 58.8%
- Percent Release, Mean (0% Ethanol, 75 min): 60.8%
- Percent Release, Mean (0% Ethanol, 90 min): 62.6%
- Percent Release, Mean (0% Ethanol, 120 min): 66.0%
- Percent Release, Mean (0% Ethanol, 240 min): 78.6%
- Percent Release, Mean (0% Ethanol, 480 min): 95.5%
- Percent Release, Mean (5% Ethanol, 15 min): 52.6%
- Percent Release, Mean (5% Ethanol, 30 min): 55.1%
- Percent Release, Mean (5% Ethanol, 45 min): 57.1%
- Percent Release, Mean (5% Ethanol, 60 min): 58.9%
- Percent Release, Mean (5% Ethanol, 75 min): 60.7%
- Percent Release, Mean (5% Ethanol, 90 min): 62.3%
- Percent Release, Mean (5% Ethanol, 120 min): 65.5%
- Percent Release, Mean (5% Ethanol, 240 min): 77.2%
- Percent Release, Mean (5% Ethanol, 480 min): 94.4%
- Percent Release, Mean (10% Ethanol, 15 min): 51.7%
- Percent Release, Mean (10% Ethanol, 30 min): 54.1%
- Percent Release, Mean (10% Ethanol, 45 min): 56.0%
- Percent Release, Mean (10% Ethanol, 60 min): 57.8%
- Percent Release, Mean (10% Ethanol, 75 min): 59.5%
- Percent Release, Mean (10% Ethanol, 90 min): 61.1%
- Percent Release, Mean (10% Ethanol, 120 min): 64.1%
- Percent Release, Mean (10% Ethanol, 240 min): 75.5%
- Percent Release, Mean (10% Ethanol, 480 min): 93.5%
- Percent Release, Mean (20% Ethanol, 15 min): 50.2%
- Percent Release, Mean (20% Ethanol, 30 min): 53.4%
- Percent Release, Mean (20% Ethanol, 45 min): 55.5%
- Percent Release, Mean (20% Ethanol, 60 min): 57.3%
- Percent Release, Mean (20% Ethanol, 75 min): 59.0%
- Percent Release, Mean (20% Ethanol, 90 min): 60.5%
- Percent Release, Mean (20% Ethanol, 120 min): 63.3%
- Percent Release, Mean (20% Ethanol, 240 min): 76.0%
- Percent Release, Mean (20% Ethanol, 480 min): 91.9%
- Percent Release, Mean (40% Ethanol, 15 min): 16.7%
- Percent Release, Mean (40% Ethanol, 30 min): 30.4%
- Percent Release, Mean (40% Ethanol, 45 min): 38.5%
- Percent Release, Mean (40% Ethanol, 60 min): 43.1%
- Percent Release, Mean (40% Ethanol, 75 min): 46.1%
- Percent Release, Mean (40% Ethanol, 90 min): 48.3%
- Percent Release, Mean (40% Ethanol, 120 min): 51.1%
- Percent Release, Mean (40% Ethanol, 240 min): 60.8%
- Percent Release, Mean (40% Ethanol, 480 min): 77.2%
